In US5593970A, “Heterocyclic anthracycline analogs” (priority 1994, dated 1997):

Tests used:
P388/ADR = assay: Soft agar colony formation disk diffusion assay; type: cell-based, murine
Method in brief: (§1)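 Tumour cells plated in upper 0.4% Noble agar layer in RPMI-1066; bottom layer 0.8% Noble agar with Tryptic Soy Broth. Drug in DMSO/water dried onto a 6.5 mm disk placed on the cell layer. Incubated 10-20 days; anti-clonogenic activity taken as inhibition zone width.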

B16 = assay: Soft agar colony formation disk diffusion assay; type: cell-based, murine
Method in brief: as §1

LL = assay: Soft agar colony formation disk diffusion assay; type: cell-based, murine; conditions: 100 μg/DISK
Method in brief: as §1

M5076 = assay: Soft agar colony formation disk diffusion assay; type: cell-based, murine
Method in brief: as §1

P388 = assay: Soft agar colony formation disk diffusion assay; type: cell-based, murine
Method in brief: as §1

SKVLB = assay: Microculture tetrazolium assay; type: cell-based
HT29 [1] = assay: Soft agar colony formation disk diffusion assay; type: cell-based, human
Method in brief: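 Cells were plated at 10^4–2×10^5 cells per dish in a 0.4% Noble agar upper layer over 0.8% agar. The compound (DMSO/water solution) was applied on a 6.5 mm filter disk, and plates were incubated at 37 °C, 5% CO2 for 10–20 days. Anti-clonogenic activity was measured microscopically as the inhibition zone from the disk edge to the nearest colonies (>50 cells).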

LOX = assay: Microculture tetrazolium assay; type: cell-based; conditions: read-out: IC50
HT29 [2] = assay: Microculture tetrazolium assay; type: cell-based; conditions: Homo sapiens, HT-29, HT29; read-out: IC50
MATB.WT = assay: Soft agar colony formation disk diffusion assay; type: cell-based, rat
Method in brief: as §1

MATB/ADR = assay: Soft agar colony formation disk diffusion assay; type: cell-based, rat
Method in brief: as §1

SMILES: CCOC(=O)[C@@H]1CC2=C(C(=O)c3cc4ccccc4c(OC(C)=O)c3C2=O)[C@@H](O)O1 (mixture of isomers) [BCH-660, (1S,3S) and (1R,3R)-Ethyl-[6-acetoxy-1-hydroxy-5,12-dioxo-3,4,5,12-tetrahydroanthraceno (2,3-c)pyran-3-yl]formate]
- zone of inhibition (P388/ADR; 10 μg/DISK): 6.1 ± 8.6 Zone Units
- zone of inhibition (P388/ADR; 100 μg/DISK): 54.9 ± 8.6 Zone Units
- zone of inhibition (B16; 10 μg/DISK): 6.1 ± 8.6 Zone Units
- zone of inhibition (B16; 100 μg/DISK): 85.4 ± 8.6 Zone Units
- zone of inhibition (LL): 55.0 ± 8.4 Zone Units
- zone of inhibition (M5076; 10 μg/DISK): 24.4 ± 8.6 Zone Units
- zone of inhibition (M5076; 100 μg/DISK): 61.0 ± 0.0 Zone Units
- zone of inhibition (P388; 10 μg/DISK): 18.3 ± 8.6 Zone Units
- zone of inhibition (P388; 100 μg/DISK): 54.9 ± 0.0 Zone Units
- VLB/OV3 (SKVLB; IC50 ratio SKVLB/SKOV3): 1.22
- IC50 (SKVLB; SKVLB, read-out: IC50): 6.49 µM
- zone of inhibition (HT29 [1]; 10 μg/DISK): 27.4 ± 4.3 Zone Units
- zone of inhibition (HT29 [1]; 100 μg/DISK): 103.7 ± 2.1 Zone Units
- IC50 (LOX): 9.84 µM
- IC50 (HT29 [2]): 2.92 µM
- zone of inhibition (MATB.WT; 10 μg/DISK): 137.2 ± 21.5 Zone Units
- zone of inhibition (MATB.WT; 100 μg/DISK): 137.2 ± 21.5 Zone Units
- zone of inhibition (MATB/ADR; 10 μg/DISK): 24.4 ± 8.6 Zone Units
- zone of inhibition (MATB/ADR; 100 μg/DISK): 161.5 ± 30.4 Zone Units
